Experimental findings from PubChem BioAssay AID179 (DTP/NCI, 2004) are described below.

Several values for one entry are separate records, joined by “and”; a condition that tells them apart may be missing. Equal entries are not always repeated. Activity calls are given as the source filed them.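 How the source made its calls: active means compounds giving half or more protection of infected cells from virus-caused growth loss, again on retest; inactive means the rest.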 Where a SMILES comes first, the peptide text is derived from it. [ ]: non-standard residue; d: D form. The star is where a group is joined. Phe(4-NO2) = N[CH](Cc1ccc([N+](=O)[O-])cc1)C(=O)O; Cbz = O=C(OCc1ccccc1)*

The subject of the assay is CEM cells HIV-1 protection, formazan growth assay. In words: NCI AIDS Antiviral Assay. The conditions noted are these: for IC50: measured here: growth of uninfected CEM cells. Put shortly:
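Steps: treat uninfected and HIV-1-infected human CEM cells at five drug levels; quantify growth by soluble formazan; retest any compound reaching 50% protection; classify actives from the retest.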

As for `CC(C(=O)OCc1ccccc1)N(Cc1ccccc1)Cc1ccccc1` (centres undefined), the EC50 is greater than 200 µM and the IC50 was greater than 200 µM. For `COc1cc2c(c([N+](=O)[O-])c1)NC(=O)CS2`, the EC50 was greater than 200 µM and the IC50 was 79.4 µM. The like results for `CCCCC1=C(C(=O)N2CCOCC2)C2(OCCO2)C1=O` were, in that order, greater than 200 µM and 53.7 µM. With `CC1(C)c2ccccc2C(C)(C)C(C(=O)Nc2ccccc2)C1C(=O)O` (centres undefined), the result was inactive.

Regarding `CCOC(=O)O/C(=C\c1ccc(OC)cc1)c1c(OC(=O)OCC)n(C(=O)OCC)c2ccccc12`, the EC50 is greater than 200 µM and the IC50 was found to be 6.61 µM. The like results for `O=C(Nc1ccc([N+](=O)[O-])cc1)C1C(=O)C(=O)N(c2ccc([N+](=O)[O-])cc2)C1=O` (centres undefined) were, in that order, greater than 234 µM and greater than 234 µM. The like results for `Cn1c(=O)c(Cl)c(N=[N+]=[N-])c2ccccc21` were, in that order, greater than 75.9 µM and 55 µM.

Consider `CCOC(=O)/C(C#N)=C/c1ccc(OC)cc1`, for which the EC50 is greater than 155 µM and the IC50 was greater than 155 µM.

As to `CCOC(=O)C1=Nc2ccccc2N=C(C2C(=O)C=C(C)OC2=O)C1` (centres undefined), the EC50 was greater than 200 µM and the IC50 was greater than 200 µM. With `COc1ccc(CN2CCCN(Cc3ccc(OC)cc3)C2c2cc([N+](=O)[O-])ccc2O)cc1`, the EC50 was greater than 200 µM and the IC50 worked out at 28.8 µM. The like results for `Cc1cc(C)c(SSc2c(C)cc(C)cc2C)c(C)c1` were, in that order, greater than 200 µM and 28.2 µM.

In the case of `CN(C)P(=O)(N(C)C)N(C)C`, the EC50 is greater than 200 µM and the IC50 is greater than 200 µM.

As for `N=N/C(=C\c1c(O)[nH]c2ccccc12)c1ccccc1`, the EC50 is greater than 200 µM and the IC50 came to 3.31 µM. Consider `O=C1CN(/C=C(\c2ccccc2)S(=O)Cc2ccccc2)C(=S)N1` (centres undefined), for which the EC50 is greater than 200 µM and the IC50 was greater than 200 µM. Take `CCCCCCCC(=O)OCC(C[As](=O)(O)O)OC(=O)CCCCCCC` (centres undefined): the EC50 is greater than 200 µM and the concentration for half-maximal inhibition (IC50) was determined as 15.1 µM. The like results for `Clc1cc(Cl)cc(Nc2nc3ccccc3nc2-c2cccs2)c1` were, in that order, greater than 10 µM and greater than 10 µM. The like results for `Cc1ccc(O)c(C(=O)CCCC(=O)c2cc(C)ccc2O)c1` were, in that order, greater than 12 µM and greater than 12 µM. For `CCOC(=O)c1cc(C2CCN(c3ccccc3)C2=O)c(C(=O)/C=C(/C)N)[nH]1` (centres undefined), in that order: 57.5 µM and greater than 200 µM. For `NC(=O)COc1c(Br)cc(Br)cc1Br`, the EC50 was greater than 34.7 µM and the IC50 is greater than 34.7 µM. As for `Cc1cc(S(=O)(=O)Nc2nc(N)nc3nc4ccccc4n23)c(S)cc1Cl`, the EC50 was 95.5 µM and the IC50 came out at 380 µM.

Take `C/C=C(\C1CC(=O)N2CCc3c([nH]c4ccccc34)C2C1)[Si](C)(C)C` (centres undefined): the EC50 is greater than 14.8 µM and the IC50 is greater than 14.8 µM. For `CCOP(=O)(OCC)/C(C#N)=C/c1cccn1C(C)C`, the EC50 is 151 µM and the IC50 is greater than 200 µM.

In the case of `O=C1C(C(O)(C(F)(F)Cl)C(F)(F)Cl)CCCC1C(O)(C(F)(F)Cl)C(F)(F)Cl` (centres undefined), the EC50 was greater than 200 µM and the IC50 amounted to 10 µM. Take `CN(C(=O)CCC(=O)O)c1ccccc1C(=O)O`: the EC50 is greater than 200 µM and the IC50 was greater than 200 µM. Regarding `COC(=O)C1C(=O)CC2C(C(=O)OC)C(=O)CC12` (centres undefined), the EC50 is greater than 234 µM and the IC50 amounted to 105 µM.

With `CCC(C)[C@H]1C(=O)N=C(N)N1C(=O)OCc1ccccc1` (some centres undefined), the EC50 was 195 µM and the IC50 was greater than 200 µM. Regarding `Cc1cc(C)c(N)c(CO)c1`, the EC50 was greater than 200 µM; the IC50 is > 200 µM and 107 µM. In the case of `CCSC(CCC(NC(C)=O)(C(=O)O)C(=O)O)SCC`, the EC50 was greater than 200 µM and the IC50 was greater than 200 µM. For the molecule `CC(=O)N=C1N(/C=C2\C(=O)Oc3ccccc3C2=O)C(=O)/C(=C/c2ccc3c(c2)OCO3)N1C`, the EC50 was greater than 200 µM and the IC50 is greater than 200 µM. On to `CCN(CC)c1cc2c3c(c1)CCCN3CCC2`, for which the EC50 was greater than 100 µM and the IC50 was 95.5 µM. Consider `NC(=O)NO`, for which the outcome was inactive and the IC50 came to 112 µM.

`CC(=O)O[C@H]1CC[C@H]2[C@@H]3CCC4C(C)=NNC(=O)C4[C@H]3CC[C@]12C` (some centres undefined): the EC50 is greater than 200 µM and the IC50 was greater than 200 µM. With `Oc1cc(O)c2c(c1)OC(c1ccc(O)c(O)c1)C(O)C2c1c(O)cc(O)c2c1OC(c1ccc(O)c(O)c1)C(O)C2` (centres undefined), the EC50 was greater than 200 µM and the IC50 was found to be 102 µM. For `COc1cc(C2C(C(=O)Nc3cc(F)c(F)cc3F)=C(C)NC(C)=C2C(=O)Nc2cc(F)c(F)cc2F)ccc1O`, in that order: greater than 32.4 µM and greater than 32.4 µM. The like results for `Cn1nc(-c2ccc3c(c2)OCO3)[n+]([O-])c2c(=O)n(C)c(=O)nc1-2` were, in that order, greater than 200 µM and 0.38 µM. For `C=CC(C)(O)CN(C=O)Cc1ccccc1` (centres undefined), in that order: greater than 589 µM and greater than 589 µM.

Consider `O=C1/C(=C/c2ccc(O)c(O)c2)CC/C1=C\c1ccc(O)c(O)c1`, for which the EC50 is greater than 200 µM and the IC50 is 10.7 µM. For the molecule `CC(C)/C(Cl)=N\OC(=O)Nc1ccc(F)c([N+](=O)[O-])c1`, the EC50 is greater than 200 µM and the IC50 was 3.02 µM. The like results for `Nc1nc(=O)n(C2OC(CO)CC2F)cc1F` (centres undefined) were, in that order, 55 µM and 575 µM. The like results for `CN1CCN(C)P1c1ccccc1` were, in that order, greater than 1290 µM and greater than 1290 µM.

Turning to `Cc1cc(C)n(CCNCCn2nc(C)cc2C)n1`, the result was inactive. For the molecule `N#CC1=C(Cl)NC(Cl)=C(C#N)C1c1c(Cl)cccc1Cl`, the EC50 is 18.2 µM and the IC50 was greater than 100 µM. Consider `CN(C)C(=S)N/N=C(\C(=N/NC(=S)N(C)C)c1ccccn1)c1ccccn1`, for which the EC50 is greater than 20 µM and the IC50 came to 1.1 µM. In the case of `O=C1C[N+]2(Cc3ccccc3)CCC1CC2`, the EC50 was greater than 851 µM and the IC50 was greater than 851 µM. As to `CC[C@@]1(OS(=O)(=O)O)CCC2C3CC=C4CC(O)CC[C@]4(C)C3CC[C@@]21C` (some centres undefined), the EC50 was 107 µM and the IC50 amounted to 224 µM. The like results for `COc1ccn(CC(C)=O)c(=O)n1` were, in that order, greater than 200 µM and greater than 200 µM. The like results for `S=c1c2cn[nH]c2nc2scc(-c3ccc(Cl)cc3)n12` were, in that order, greater than 200 µM and 13.2 µM. The like results for `Cc1c(CCC(C)C)oc2cc3oc(CCC(C)C)c(C)c3cc12` were, in that order, greater than 70.8 µM and greater than 70.8 µM.

As for `CC12CN3CC(C)(C1=O)C(=O)C(C)(C3)C2=O`, the EC50 was greater than 117 µM and the IC50 was greater than 117 µM. In the case of `CCOC(=O)CON=c1c2ccccc2ccc2ccccc12`, the EC50 is greater than 200 µM and the IC50 was greater than 200 µM. On to `O=C(OCCN1CCCCC1)c1cc2ccccc2[nH]1`, for which the EC50 was greater than 200 µM and the IC50 is greater than 200 µM. `CCOC(=O)c1cnc(-n2[nH]c(C)c(CCO)c2=O)[nH]c1=O`: the EC50 is greater than 200 µM and the IC50 was greater than 200 µM. Turning to `COc1cc(C[N+]23CC[N+](Cc4cc(OC)cc(OC)c4)(CC2)C3)cc(OC)c1`, the EC50 is greater than 525 µM and the half-maximal inhibitory concentration (IC50) was 214 µM.

As for `CCOC(=O)CCC(NC(=O)OCc1ccccc1)C(=O)NC(CCC(=O)OCC)C(=O)NC(CCC(=O)OCC)C(=O)NC(CCC(=O)OCC)C(=O)NC(CCC(=O)OCC)C(=O)NC(Cc1ccc([N+](=O)[O-])cc1)C(=O)NC(CCC(=O)OCC)C(=O)NC(CCC(=O)OCC)C(=O)NC(CCC(=O)OCC)C(=O)NC(CCC(=O)OCC)C(=O)NC(CCC(=O)OCC)C(=O)OCC` (centres undefined) (Cbz-E(OEt)E(OEt)E(OEt)E(OEt)E(OEt)[Phe(4-NO2)]E(OEt)E(OEt)E(OEt)E(OEt)E(OEt)-OEt; configuration not given here), the EC50 is greater than 50.1 µM and the half-inhibitory concentration (IC50) is greater than 50.1 µM. For the molecule `O=C1C(C(c2ccccc2)N2CCOCC2)=C(O)C(c2ccccc2)N1c1ccccc1` (centres undefined), the outcome was inactive. On to `O=C(/C=C/c1cccs1)c1ccsc1`, for which the EC50 is greater than 200 µM and the IC50 came out at 11.7 µM. For the molecule `CC(=O)OC12CC(C(F)(F)F)(C(F)(F)F)OC1(OC(C)=O)CC(C(F)(F)F)(C(F)(F)F)O2` (centres undefined), the result was inactive. On to `C=C(c1cccn1S(=O)(=O)c1ccccc1)c1cccn1S(=O)(=O)c1ccccc1`, for which the EC50 was greater than 100 µM and the IC50 was determined as 25.7 µM. As for `N#Cc1nc(-c2ccccc2C(=O)O)oc1N`, the outcome was inactive.

Consider `CN(C)CC1CCC/C(=C\c2ccc(OC(=O)/C=C/c3ccc(Cl)cc3)cc2)C1=O` (centres undefined), for which the EC50 is greater than 50.1 µM and the IC50 came out at 2.19 µM. For `C=CCC1[C@@H](C(C)(C)C(C(C)=O)C(=O)C(=O)OC)OC(C(C)(C)C)N1C(=O)OC` (some centres undefined), in that order: greater than 63.1 µM and greater than 63.1 µM. The like results for `O=C(/C=C/c1ccccc1)CCN1CCCCC1` were, in that order, greater than 200 µM and 10.2 µM.

In the case of `C1CNCCNCCNCCN1`, the result was inactive.

`Nc1nc2c(ncn2C(CCO)SCCO)c(=O)[nH]1` (centres undefined): the EC50 is greater than 871 µM and the concentration for half-maximal inhibition (IC50) is greater than 871 µM. Consider `COc1c(O)c2c(=O)cc(OC)c3c4c(OC)cc(=O)c5c(O)c(OC)c6c(c(c1CC(C)=C6OC(C)=O)c23)c54`, for which the EC50 was greater than 4.79 µM and the IC50 came out at 1.29 µM. For `CCN1c2ccccc2-n2c(C)nnc2-c2c1n[nH]c2-c1ccccc1`, in that order: greater than 200 µM and 28.2 µM. The like results for `O=C(NN1C(=O)c2ccccc2C1=O)c1ccccc1Nc1ccccc1C(=O)NN1C(=O)c2ccccc2C1=O` were, in that order, greater than 200 µM and greater than 200 µM. The like results for `O=C1OC(c2ccccc2)=N/C1=C\c1c(O)cc(O)cc1O` were, in that order, greater than 87.1 µM and greater than 87.1 µM. Regarding `CCC[CH2][Sn]([CH2]CCC)([O]C(=O)C(OC)c1ccccc1)[O]C(=O)C(OC)c1ccccc1` (centres undefined), the EC50 was greater than 6.76 µM and the IC50 came out at 0.182 µM. For `Cc1ccc(NC(=O)c2cc(S(=O)(=O)Nc3nc4ncccc4[nH]3)c(SSc3cc(Cl)c(C(=O)Nc4ccc(C)cc4)cc3S(=O)(=O)Nc3nc4ncccc4[nH]3)cc2Cl)cc1`, the EC50 was greater than 200 µM and the IC50 was greater than 200 µM.

As usually defined, the EC50 is the concentration needed to bring the measured effect to its halfway point. The term IC50 denotes the concentration that gives 50% inhibition. The low end stands for greater potency, the high end for weaker potency.
